Consider one compound from publication PMC12036875, “Mitochondria-targeting natural product rhein conjugated with dichloroacetate as the dual inhibitor of glycolysis and oxidative phosphorylation to off energize cancer cells and induce ROS storm” (Theranostics, 2025).

One series concerns 4T1 tumor metastasis. Put plainly: Lung and liver metastasis (images, H&E). The settings on record: 20 mg/kg oral, 24 days. Format: in vivo, Balb/c mice. On the procedure: Correspondingly, the lung and liver tissues, which are the most common sites for primary tumor metastasis, were obtained and imaged, and then subjected to H&E staining for histopathological examination. […] The major organs (heart, liver, spleen, lung and kidney) were also excised for photographing and H&E staining. The blood biochemistry indexes, including ALT, AST, CREA and UREA were tested.

The nature of series [1]: Tissue distribution after oral administration. Type of series: in vivo. The settings on record: 4T1-bearing Balb/c mice, oral 20 mg/kg. As for the experimental part:
4T1-bearing Balb/c mice were orally administered with Rhein-DCA (20 mg/kg), major organs (heart, liver, spleen, lung, kidney) and tumor tissues were harvested at 2, 6, and 24 h after administration. […] The Rhein-DCA conjugate could be absorbed rapidly and broadly distributed in major organs tissue after administration.
4T1-bearing Balb/c mice were orally administered with Rhein-DCA (20 mg/kg), major organs (heart, liver, spleen, lung, kidney) and tumor tissues were harvested and weighed at 2, 6, and 24 h after administration. Each organ was homogenized with sonication in ice bath (power 400 W, the duration of sonication is 3 s, the interval duration of 3 s, total sonication time of 20 min). Centrifuge the homogenate at 13000 G for 10 min at 4°C to obtain the supernatant for HPLC.

A further series concerns mPTP in 4T1 cells. Nature of the series: Mitochondrial permeability transition pore opening assay (Calcein AM). The settings on record: 6.25 μM, 24 h. Type of series: cell-based, Mouse. The source says:
On the other hand, rhein could also disturb mitochondria, the camp of OXPHOS, to further prevent cancer cells from obtaining ATP by inducing pathological opening of mPTP [30]. We first detected mPTP on 4T1 cancer cells treated with indicated drugs according to the mPTP assay kit. The green fluorescence of Calcein AM in mitochondria would vanish when the quencher entered mitochondria through the opened mPTP channel. […] The sustained opening of mPTP along with the loss of Δψm. Thus, we further examined the Δψm of 4T1 cancer cells with JC-1 fluorescence dyes and tetramethylrhodamine, ethyl ester (TMRE) probe. The JC-1 dyes underwent a transition from aggregated red fluorescence to monomeric green fluorescence with mitochondrial depolarization in cells, and the increase of green/red fluorescence intensity ratio of JC-1 dyes indicated mitochondrial depolarization.
The opening status of the mPTP in 4T1 cells were tested with fluorescent probe Calcein AM. Briefly, 4T1 cells were seeded into 6-wells plates at a density of 10 × 10^4 cells per well and treated with various drugs at 6.25 μM for 24 h. After being washed twice with PBS, the cells were stained with Calcein AM staining solution (1 ×) and CoCl2 fluorescence quenching solution (1 ×) for 45 min at 37 °C in the dark. Next, they were further cultured with fresh medium at 37 °C for another 30 min in the dark. […]

Series [2] has as its system mitochondria of 4T1 cells. Nature of the series: Cell uptake and organelle localization (CLSM). Type of series: cell-based, Mouse. Particulars: 24 h. From the text:
In order to evaluate the positive effect of the conjugation of rhein and DCA on anti-cancer aspect, cellular uptake of Rhein-DCA conjugate in 4T1 cells was first examined by confocal laser scanning microscope (CLSM). Based on the fluorescence properties of Rhein-DCA conjugate, green fluorescence signal indicated its distribution within the cells. […] The green fluorescence of rhein was highly overlapped with the red fluorescence of mitochondria (Mito tracker red) and merged into yellow fluorescence in rhein and Rhein-DCA groups.
4T1 cells were seeded in confocal dishes at a density of 10 × 10^4 cells per dish and cultured in the incubator for 24 h. And the cells were further treated with Rhein-DCA conjugate at a concentration of 6.25 μM for 0, 2, 6, 12 or 24 h, respectively. Thereafter, the cells were washed twice with PBS and stained with Hoechst 33342 (10 μg/mL) for 15 min in the dark at room temperature, followed by another two washes with PBS. Finally, the fluorescence intensity of cells was monitored with confocal microscope with excitation wavelengths (Ex) of 488 nm, emission wavelengths (Em) of 525 ± 25 nm, and Ex of 405 nm, Em of 447 ± 30 nm, respectively. […]

A short description of series [3]: Stability in 2.5% DMSO-PBS by UV-Vis absorption. Format: physicochemical. Particulars: room temperature, 0-12 h. As for the experimental part: Stability of drugs is vital indexes for anticancer application. The stability of Rhein-DCA conjugate in vitro was performed by dispersing it in 2.5% dimethyl sulfoxide (DMSO)-PBS at room temperature for 0, 2, 6 and 12 h. […] Furthermore, we also quantitatively analyzed the intracellular stability of Rhein-DCA using high-performance liquid chromatography (HPLC). After 4 h of uptake, the intracellular concentration of Rhein-DCA was 0.095 μg/10^6 cells within 4T1 cells.
UV-Vis spectra were used to investigate the stability of Rhein-DCA conjugate. The Rhein-DCA was dispersed in 2.5% DMSO-PBS at room temperature, and the absorption spectrum was monitored at 0, 2, 6 and 12 h. High performance liquid chromatography (HPLC) was used to investigate the intracellular stability of Rhein-DCA conjugate. 4T1 cells were seeded in cell culture dish (diameter of 10 cm) at a density of 2 × 10^6 cells per dish and cultured in the incubator for 24 h. Then the cells were further treated with Rhein-DCA conjugate at a concentration of 11 μg/mL for 4 h. After removing media and washing the cells three times with PBS to remove the residual Rhein-DCA, the cells were incubated for another 2 h. […] A C18 column was used with methanol / 0.1% H₃PO₄ (83:17) as the mobile phase, flow rate 1.0 mL/min, fluorescence detector with an excitation wavelength of 443 nm and an emission wavelength of 530 nm.

For the compound `O=C(OCCOC(=O)C(Cl)Cl)c1cc(O)c2c(c1)C(=O)c1cccc(O)c1C2=O` [Rhein-DCA], the “metastatic lesions in lungs and livers” value in the series on 4T1 tumor metastasis is “significantly decreased the number and size of metastatic lesions”. For the same compound, in series [1], the intra-tumoral retention entry is recorded as “remaining quantifiable up to 24 h” and the “systemic clearance from major organs by 24 h” value was “extremely completed”. Moreover, the Tmax in series [1] (mouse, tumor, sampled at 2, 6, 24 h, read-out: time of peak concentration in tumors) was 6 h. Also, the “mPTP opening (Calcein AM green fluorescence)” value in the series on mPTP in 4T1 cells is listed as “faintest green fluorescence”. In addition, the “co-localization with lysosomes (Lyso tracker red) and endoplasmic reticulum (ER tracker red)” value in series [2] is listed as “almost did not co-localize”. The “stability (UV-Vis absorption spectra)” value in series [3] is “relatively stable”.
